Laboratory results published in patent US20080176862A1, “New Compounds 617” (ASTRAZENECA AB, priority 2006, published 2008).
Counter-ions that a name gives are not always drawn.

What follows are compounds tested against T1, human β-Secretase (soluble part, AA1-AA460; sBACE-Fc) (Homo sapiens, UniProt P56817) (assay: TR-FRET assay). Settings: substrate (Europium)CEVNLDAEFK(Qsy7) 100 nM, pH 4.5, 15 min at RT; read-out: IC50 (nM) in TR-FRET assay.
T1 construct: The soluble part of the human β-Secretase (AA1-AA460) was cloned into the ASP2-Fc10-1-IRES-GFP-neoK mammalian expression vector; made in house
T1 sequence (P56817 22-460): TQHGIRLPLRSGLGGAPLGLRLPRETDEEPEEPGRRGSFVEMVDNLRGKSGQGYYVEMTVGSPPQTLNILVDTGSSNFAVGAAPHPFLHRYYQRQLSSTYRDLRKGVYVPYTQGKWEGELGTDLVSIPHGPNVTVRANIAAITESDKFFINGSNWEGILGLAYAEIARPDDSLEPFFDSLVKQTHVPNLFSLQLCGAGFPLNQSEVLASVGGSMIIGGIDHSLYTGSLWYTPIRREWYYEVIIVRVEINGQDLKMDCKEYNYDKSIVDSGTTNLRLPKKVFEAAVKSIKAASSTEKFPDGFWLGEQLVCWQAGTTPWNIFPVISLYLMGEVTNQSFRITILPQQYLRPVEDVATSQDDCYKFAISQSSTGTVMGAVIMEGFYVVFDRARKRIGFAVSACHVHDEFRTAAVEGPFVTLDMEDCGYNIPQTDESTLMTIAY
Type: biochemical
For `CCC(C)(C)c1ccc(S(=O)(=O)Oc2cccc(C3(c4ccc(F)c(-c5cncnc5)c4)N=C(N)N(C)C3=O)c2)cc1` (stereo not shown) [Example 234, 3-[2-Amino-4-(4-fluoro-3-pyrimidin-5-ylphenyl)-1-methyl-5-oxo-4,5-dihydro-1H-imidazol-4-yl]phenyl 4-(1,1-dimethylpropyl)benzenesulfonate], the IC50 was 82 nM. Work on `CCCS(=O)(=O)Oc1cccc(C2(c3ccc(F)c(-c4cc(Cl)cc(OC)c4)c3)N=C(N)N(C)C2=O)c1` (stereo not shown) [Example 99, 3-[2-Amino-4-(3′-chloro-6-fluoro-5′-methoxybiphenyl-3-yl)-1-methyl-5-oxo-4,5-dihydro-1H-imidazol-4-yl]phenyl propane-1-sulfonate] yielded an IC50 of 330 nM. `COc1cc(OS(C)(=O)=O)cc(-c2cccc(C3(c4ccc(OC(F)(F)F)cc4)N=C(N)N(C)C3=O)c2)c1` (stereo not shown) [Example 58, 3′-{2-Amino-1-methyl-5-oxo-4-[4-(trifluoromethoxy)phenyl]-4,5-dihydro-1H-imidazol-4-yl}-5-methoxybiphenyl-3-ylmethanesulfonate] was tested, and the IC50 was 81 nM. Compound `Cc1cc(C2(c3cccc(-c4cc(Cl)cc(OS(C)(=O)=O)c4)c3)N=C(N)N(C)C2=O)cc(C)n1` (stereo not shown) [Example 306, 3′-(2-Amino-4-(2,6-dimethylpyridin-4-yl)-1-methyl-5-oxo-4,5-dihydro-1H-imidazo-4-yl)-5-chlorobiphenyl-3-yl methanesulfonate hydrochloride] has an IC50 of 89 nM. `COc1cccc(-c2cc(C3(c4cccc(OS(=O)(=O)C(C)C)c4)N=C(N)N(C)C3=O)ccc2F)c1` (stereo not shown) [Example 108, 3-[2-Amino-4-(6-fluoro-3′-methoxybiphenyl-3-yl)-1-methyl-5-oxo-4,5-dihydro-1H-imidazol-4-yl]phenyl propane-2-sulfonate] gave an IC50 of 186 nM. `CCN1C(=O)C(c2ccc(OS(C)(=O)=O)cc2)(c2ccc(F)c(-c3cc(Cl)cc(Cl)c3)c2)N=C1N` (stereo not shown) [Example 161, 4-[2-Amino-4-(3′,5′-dichloro-6-fluorobiphenyl-3-yl)-1-ethyl-5-oxo-4,5-dihydro-1H-imidazol-4-yl]phenyl methanesulfonate] gave an IC50 of 1680 nM. `CN1C(=O)C(c2ccc(OC(F)(F)F)cc2)(c2cccc(-c3cc(Cl)cc(OS(C)(=O)=O)c3)c2)N=C1N` (stereo not shown) [Example 59, 3′-{2-Amino-1-methyl-5-oxo-4-[4-(trifluoromethoxy)phenyl]-4,5-dihydro-1H-imidazol-4-yl}-5-chlorobiphenyl-3-ylmethanesulfonate] was tested, and the IC50 was 128 nM. For `CN1C(=O)C(c2cccc(OS(=O)(=O)N(C)C)c2)(c2ccc(F)c(-c3cc(Cl)cc(Cl)c3)c2)N=C1N` (stereo not shown) [Example 113, 3-[2-Amino-4-(3′,5′-dichloro-6-fluorobiphenyl-3-yl)-1-methyl-5-oxo-4,5-dihydro-1H-imidazol-4-yl]phenyl dimethylsulfamate], the IC50 was 121 nM. Compound `CN1C(=O)C(c2ccc(OS(=O)(=O)C(F)(F)F)cc2)(c2ccc(F)c(-c3cnccn3)c2)N=C1N` (stereo not shown) [Example 143, 4-[2-Amino-4-(4-fluoro-3-pyrazin-2-ylphenyl)-1-methyl-5-oxo-4,5-dihydro-1H-imidazol-4-yl]phenyl trifluoromethanesulfonate 0.5 acetate] has an IC50 of 214 nM. For `CN1C(=O)C(c2ccc(OS(=O)(=O)c3c(Cl)nc4sccn34)cc2)(c2ccc(F)c(-c3cccnc3)c2)N=C1N` (stereo not shown) [Example 286], the IC50 was 68 nM. In the case of `CN1C(=O)C(c2cccc(OS(=O)(=O)c3ccc4c(c3)oc(=O)n4C)c2)(c2ccc(F)c(-c3cncnc3)c2)N=C1N` (stereo not shown) [Example 240, 3-[2-Amino-4-(4-fluoro-3-pyrimidin-5-ylphenyl)-1-methyl-5-oxo-4,5-dihydro-1H-imidazol-4-yl]phenyl 3-methyl-2-oxo-2,3-dihydro-1,3-benzoxazole-6-sulfonate], the IC50 was 20 nM. In the case of `COc1cccc(-c2ccnc(C3(c4ccc(OS(C)(=O)=O)cc4)N=C(N)N(C)C3=O)c2)c1` (stereo not shown) [Example 296, 4-{2-Amino-4-[4-(3-methoxyphenyl)pyridin-2-yl]-1-methyl-5-oxo-4,5-dihydro-1H-imidazol-4-yl}phenyl methanesulfonate 0.25 acetate], the IC50 was 1350 nM. `CCC(C)(C)c1ccc(S(=O)(=O)Oc2ccc(C3(c4ccc(F)c(-c5cncnc5)c4)N=C(N)N(C)C3=O)cc2)cc1` (stereo not shown) [Example 276, 4-[2-Amino-4-(4-fluoro-3-pyrimidin-5-ylphenyl)-1-methyl-5-oxo-4,5-dihydro-1H-imidazol-4-yl]phenyl 4-(1,1-dimethylpropyl)benzenesulfonate] showed an IC50 of 183 nM. `COc1ccc(S(=O)(=O)Oc2ccc(C3(c4ccc(F)c(-c5cncnc5)c4)N=C(N)N(C)C3=O)cc2)cc1` (stereo not shown) [Example 279, 4-[2-amino-4-(4-fluoro-3-pyrimidin-5-ylphenyl)-1-methyl-5-oxo-4,5-dihydro-1H-imidazol-4-yl]phenyl 4-methoxybenzenesulfonate] gave an IC50 of 23 nM. With `COc1ccc(OC)c(S(=O)(=O)Oc2cccc(C3(c4ccc(F)c(-c5cncnc5)c4)N=C(N)N(C)C3=O)c2)c1` (stereo not shown) [Example 235, 3-[2-Amino-4-(4-fluoro-3-pyrimidin-5-ylphenyl)-1-methyl-5-oxo-4,5-dihydro-1H-imidazol-4-yl]phenyl 2,5-dimethoxybenzenesulfonate] the IC50 was 589 nM. `COc1ccc(C(C)=O)c(-c2cc(C3(c4ccc(OS(C)(=O)=O)cc4)N=C(N)N(C)C3=O)ccc2F)c1` (stereo not shown) [Example 289, 4-[4-(2′-Acetyl-6-fluoro-5′-methoxybiphenyl-3-yl)-2-amino-1-methyl-5-oxo-4,5-dihydro-1H-imidazol-4-yl]phenyl methanesulfonate] gave an IC50 of 115 nM. For `CN1C(=O)C(c2cccc(OS(=O)(=O)c3cn(C)cn3)c2)(c2ccc(F)c(-c3cncnc3)c2)N=C1N` (stereo not shown) [Example 243, 3-[2-Amino-4-(4-fluoro-3-pyrimidin-5-ylphenyl)-1-methyl-5-oxo-4,5-dihydro-1H-imidazol-4-yl]phenyl 1-methyl-1H-imidazole-4-sulfonate], the IC50 was 26 nM. In the case of `CCCS(=O)(=O)Oc1cccc(C2(c3ccc(F)c(-c4cccc(Cl)c4)c3)N=C(N)N(C)C2=O)c1` (stereo not shown) [Example 98, 3-[2-Amino-4-(3′-chloro-6-fluorobiphenyl-3-yl)-1-methyl-5-oxo-4,5-dihydro-1H-imidazol-4-yl]phenyl propane-1-sulfonate], the IC50 was 239 nM. `CN1C(=O)C(c2cccc(-c3cc(Cl)cc(OS(C)(=O)=O)c3)c2)(c2ccnc(Cl)c2)N=C1N` (stereo not shown) [Example 311, 3′-(2-Amino-4-(2-chloropyridin-4-yl)-1-methyl-5-oxo-4,5-dihydro-1H-imidazol-4-yl)-5-chlorobiphenyl-3-yl methanesulfonate hydrochloride] was tested, and the IC50 was 24 nM. `CN1C(=O)C(c2ccc(OS(C)(=O)=O)cc2)(c2ccc(F)c(/C=C/C3CC3)c2)N=C1N` (stereo not shown) [Example 78, 4-(2-Amino-4-{3-[(E)-2-cyclopropylvinyl]-4-fluorophenyl}-1-methyl-5-oxo-4,5-dihydro-1H-imidazol-4-yl)phenyl methanesulfonate] was tested, and the IC50 was 725 nM. For `COc1cc(OS(C)(=O)=O)cc(-c2cc(C3(C4CCOCC4)N=C(N)N(C)C3=O)ccc2F)c1` (stereo not shown) [Example 192, 5′-[2-Amino-1-methyl-5-oxo-4-(tetrahydro-2H-pyran-4-yl)-4,5-dihydro-1H-imidazol-4-yl]-2′-fluoro-5-methoxybiphenyl-3-yl methanesulfonate hydrochloride], the IC50 was 1260 nM. For `COc1ccc(C#N)c(-c2cc(C3(c4ccc(OS(C)(=O)=O)cc4)N=C(N)N(C)C3=O)ccc2F)c1` (stereo not shown) [Example 167, 4-[2-Amino-4-(2′-cyano-6-fluoro-5′-methoxybiphenyl-3-yl)-1-methyl-5-oxo-4,5-dihydro-1H-imidazol-4-yl]phenyl methanesulfonate], the IC50 was 46 nM.
